Data from ChEMBL document CHEMBL1201862, “PubChem BioAssay data set” (2004).
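Assay format: 96-well plates, 48-hour exposure. Here, GI50 denotes the concentration required for 50% inhibition of growth.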 Calls of active or inactive are those of the source. Cut-off read from the data, not from the text of the source: active = GI50 up to about 1.1 µM and inactive = higher.

Tests used:
Test in all cases: inhibition of tumour cell growth, NCI panel, 48 h
Hs-578T = tested on: Hs-578T
A549 = tested on: A549
UACC-62 = tested on: UACC-62
CAKI-1 = tested on: CAKI-1
SK-MEL-2 = tested on: SK-MEL-2
UACC-257 = tested on: UACC-257
RXF 393 = tested on: RXF 393
786-0 = tested on: 786-0
IGROV-1 = tested on: IGROV-1
T47D = tested on: T47D
U-251 = tested on: U-251
NCI-H226 = tested on: NCI-H226
COLO 205 = tested on: COLO 205
SNB-75 = tested on: SNB-75
RPMI-8226 = tested on: RPMI-8226
M14 = tested on: M14
BT-549 = tested on: BT-549
SW-620 = tested on: SW-620
SN12C = tested on: SN12C

Measured: GI50

CN1CCN(c2ccncc2S(=O)(=O)N2CCN(C)CC2)CC1
inactive: Hs-578T > 100 µM | A549 > 100 µM | UACC-62 > 100 µM | CAKI-1 > 100 µM | SK-MEL-2 > 100 µM | UACC-257 > 100 µM | RXF 393 > 100 µM | 786-0 > 100 µM | IGROV-1 > 100 µM | T47D > 100 µM | U-251 > 100 µM | NCI-H226 > 100 µM | COLO 205 > 100 µM | SNB-75 > 100 µM | RPMI-8226 > 100 µM | M14 > 100 µM | BT-549 > 100 µM | SW-620 > 100 µM

O=C(NCCN1CCCCC1)c1ccc(I)cc1
inactive: Hs-578T 61 µM | A549 > 100 µM | CAKI-1 > 100 µM | SK-MEL-2 > 100 µM | UACC-257 > 100 µM | RXF 393 42.4 µM | SN12C > 100 µM | 786-0 > 100 µM | IGROV-1 > 100 µM | T47D > 100 µM | U-251 > 100 µM | NCI-H226 > 100 µM | COLO 205 94.6 µM | SNB-75 89.3 µM | RPMI-8226 > 100 µM | M14 > 100 µM | BT-549 > 100 µM | SW-620 > 100 µM

CN(C1=NCCO1)c1cccc2c1CCCC2
inactive: Hs-578T 8.15 µM | A549 4.26 µM | UACC-62 3.37 µM | CAKI-1 3.6 µM | SK-MEL-2 4.09 µM | UACC-257 3.92 µM | RXF 393 3.64 µM | SN12C 3.08 µM | 786-0 3.17 µM | IGROV-1 2.75 µM | T47D 8.85 µM | U-251 3.57 µM | NCI-H226 1.44 µM | COLO 205 1.89 µM | RPMI-8226 5.93 µM | M14 2.23 µM | BT-549 9.53 µM | SW-620 > 10 µM

CCNC1=C(NC(=O)CCl)C(=O)c2ccccc2C1=O
inactive: Hs-578T 24.2 µM | A549 33.7 µM | UACC-257 > 10 µM | RXF 393 16.7 µM | SN12C 17.9 µM | 786-0 34.4 µM | IGROV-1 > 10 µM | T47D 22.3 µM | U-251 20.3 µM | NCI-H226 22 µM | COLO 205 > 10 µM | SNB-75 > 10 µM | RPMI-8226 34 µM | M14 20.9 µM | BT-549 > 10 µM | SW-620 25.8 µM

COC(=O)[C@@H]1C[C@H]2OC(=O)CC[C@]2(C)O[C@H]1[C@H]1O[C@@](C)(O)CCC[C@H]1C
inactive: Hs-578T > 50 µM | A549 > 50 µM | UACC-62 > 50 µM | CAKI-1 > 50 µM | SK-MEL-2 > 50 µM | UACC-257 > 50 µM | RXF 393 > 50 µM | SN12C > 50 µM | 786-0 > 50 µM | IGROV-1 > 50 µM | T47D > 50 µM | U-251 > 50 µM | NCI-H226 > 50 µM | COLO 205 > 50 µM | RPMI-8226 > 50 µM | M14 > 50 µM | BT-549 > 50 µM | SW-620 > 50 µM

CN1CCN(C(=S)N(C)C(=O)c2ccc(Cl)cc2)CC1
inactive: Hs-578T > 100 µM | A549 > 100 µM | UACC-62 > 100 µM | SK-MEL-2 > 100 µM | UACC-257 > 100 µM | RXF 393 > 100 µM | SN12C > 100 µM | 786-0 > 100 µM | IGROV-1 > 100 µM | T47D > 100 µM | U-251 > 100 µM | NCI-H226 > 100 µM | COLO 205 > 100 µM | SNB-75 > 100 µM | RPMI-8226 > 100 µM | M14 > 100 µM | BT-549 > 100 µM | SW-620 > 100 µM

CCOC(=O)C1=CC(C)(C(=O)OCC)Nc2c(nc(SC)[nH]c2=O)N1 (configuration not stated)
inactive: Hs-578T > 10 µM | A549 > 10 µM | CAKI-1 > 10 µM | SK-MEL-2 > 10 µM | UACC-257 > 10 µM | RXF 393 > 10 µM | SN12C > 10 µM | 786-0 > 10 µM | IGROV-1 > 10 µM | T47D > 10 µM | U-251 > 10 µM | NCI-H226 > 10 µM | COLO 205 > 10 µM | SNB-75 > 10 µM | RPMI-8226 > 10 µM | M14 > 10 µM | BT-549 > 10 µM | SW-620 > 10 µM

O=C1NC(=S)NC(=O)C1C(c1ccc([N+](=O)[O-])cc1)C1C(=O)NC(=S)NC1=O.c1ccncc1
inactive: Hs-578T > 100 µM | A549 > 100 µM | UACC-62 > 100 µM | CAKI-1 > 100 µM | SK-MEL-2 > 100 µM | UACC-257 > 100 µM | RXF 393 > 100 µM | SN12C > 100 µM | 786-0 > 100 µM | IGROV-1 > 100 µM | T47D > 100 µM | U-251 > 100 µM | NCI-H226 > 100 µM | COLO 205 > 100 µM | RPMI-8226 > 100 µM | M14 > 100 µM | BT-549 > 100 µM | SW-620 > 100 µM
